From the METLIN SMRT retention time set (Domingo-Almenara et al. 2019)

Test: gradient 5% acetonitrile 3 min, to 50% in 2 min, to 85% in 15 min, held 3 min, 100 µL/min
Settings: column: Zorbax Extend-C18 2.1 x 50 mm; eluents: water / acetonitrile, 0.1% formic acid
How it was run: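 A Zorbax Extend-C18 column (2.1 × 50 mm, 1.8 μm) run at 100 μL/min with water and acetonitrile, both containing 0.1% formic acid, separated mixtures of ~100 pure standards. The HPLC was coupled to a quadrupole time-of-flight mass spectrometer operated in positive and negative ionization mode, with dead and dwell volumes of 40 μL and 900 μL. Each retention time was taken from a computationally picked adduct peak that was then manually inspected.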

Point of comparison: CCn1cnc(S(=O)(=O)N2CCC(C(=O)Nc3cccc(-c4ccno4)c3)CC2)c1, RP-LC retention time 724 s. Against it:
- CCC(=O)N1CCc2cc(N3CC(C(=O)Nc4ccc(C(C)=O)cc4)CC3=O)ccc21 (stereo not drawn) — lower, 717 s
- Cc1nnc(-c2ccc3ccn(CC(=O)N4CCCc5ccccc54)c3c2)o1 — higher, 814 s
- Cc1cccc(C(=O)N2CCC3(C2)C(=O)N(C)c2ccccc23)c1 (stereo not drawn) — higher, 794 s
- Cc1ccc(Nc2c(-c3ccc(N(C)C)cc3)nc3ccc(Br)cn23)cc1 — higher, 838 s
- Cc1ccn2cc(-c3ccc(NS(=O)(=O)c4cccc(Cl)c4)cc3)nc2n1 — lower, 679 s
- Cc1cccc(-c2noc(-c3cccnc3N3CCN(c4ccc5c(c4)OCO5)CC3)n2)c1 — higher, 766 s
- Cc1ccc(NS(=O)(=O)c2ccc(-c3c(C)noc3C)cc2)c(Cl)c1 — higher, 1020 s
- CC(Cc1cccs1)NC(=O)CCS(=O)(=O)c1ccccc1 (stereo not drawn) — higher, 746 s
- COc1ccc(CNC(=O)C2CCCN(c3cc(=O)n(C)c(=O)n3C)C2)cc1 (stereo not drawn) — lower, 663 s
- O=C(Nc1cccc(Cl)c1)C1CCN(C(=O)C2Sc3ccccc3NC2=O)CC1 (stereo not drawn) — higher, 837 s
- COC(=O)Cn1nc2ccc(S(=O)(=O)N3CCC(C)CC3)cn2c1=O — higher, 819 s
- O=C(CN1c2ccc(Br)cc2-c2ccccc2S1(=O)=O)NCc1cccnc1 — lower, 686 s
- CCOC(=O)C1CCC(CNC(=O)Nc2cc3c(cc2N2CCCCC2)n(C)c(=O)n3C)CC1 (stereo not drawn) — lower, 689 s
- O=C(Cc1cccnc1)N1CCC(c2nc(-c3ccncc3)no2)C1 (stereo not drawn) — lower, 548 s
- O=C(Cn1nc(-c2ccco2)ccc1=O)N1CCN(c2ncccn2)CC1 — lower, 615 s
- CCN1C=C(C(=O)OCc2cccc(F)c2)C(C)=NS1(=O)=O — higher, 968 s
- CCC(C)NC(=O)Cn1nc2cc(C)nc(-c3ccc(C(F)(F)F)cc3)n2c1=O (stereo not drawn) — lower, 661 s
- CCC1Oc2ccc(S(=O)(=O)N3CCC(C(=O)NCc4ccc(Cl)cc4)CC3)cc2NC1=O (stereo not drawn) — higher, 887 s
- CC(C)c1cccc(NC(=O)Cn2nc3c(N4CCSCC4)nccn3c2=O)c1 — higher, 930 s
- O=C(NCc1ccco1)c1ccc(-c2noc(C3CC3)n2)cc1 — higher, 839 s
- O=C(CSc1cc(NCc2ccc(Cl)cc2)ncn1)Nc1ccc(F)cc1F — higher, 988 s
- O=C1CCCN1CCCN(CC(=O)N1CCNCC1)C(=O)c1ccc(Cl)cc1 — lower, 586 s
- CSc1ccc(-c2nc3ccccn3c2NC2CCCCC2)cc1 — higher, 802 s
- CCn1nc(C)c(CCNC(=O)CCCn2c3ccccc3c3cnn(C)c(=O)c32)c1C — lower, 698 s
- O=C1NC(=O)/C(=C/c2ccc(C(=O)Nc3ccc(C(=O)O)cc3)cc2)S1 — lower, 648 s
- COc1cc(OC)cc(C(=O)N2C[C@@H]3C[C@H](NC(=O)c4ccccc4)[C@H]2C3)c1 — lower, 684 s
- COc1ccc(CNC(=O)c2cn3cc(C)ccc3n2)cc1OC — lower, 614 s
- CC1CCN(c2nn(CC(=O)Nc3cccc(Cl)c3)c(=O)c3ccccc23)CC1 — higher, 1210 s
- CCOc1ccc(/C=C/c2nc(C#N)c(NCCN(C)C)o2)cc1 — lower, 668 s
- CCOc1ccc(C(=O)N2CCCC2c2nc(-c3ccc(OC)c(OC)c3)no2)cc1OCC (stereo not drawn) — higher, 916 s
- Cc1ccccc1NS(=O)(=O)c1c[nH]c2ncccc12 — higher, 728 s
- COCc1nncn1C1CCN(C(=O)c2cc(F)ccc2Cl)CC1 — lower, 635 s
- CCOc1cccc2c1OC1(CCN(C(C)=O)CC1)N1N=C(c3ccc4c(c3)OCO4)CC21 (stereo not drawn) — higher, 826 s
- CCN(CC)CCOc1ccc(Nc2ncc3cc(-c4c(Cl)cccc4Cl)c(=O)n(C)c3n2)cc1 — higher, 783 s
- CSc1ccc(CNC(=O)C2CCN(c3cc(=O)n(C)c(=O)n3C)CC2)cc1 — lower, 694 s
- O=C(NCc1nc2ccccc2n1CC(=O)N1CCCCC1)c1ccco1 — lower, 614 s
- CCN(CC)S(=O)(=O)c1cc(-c2nnc(-c3ccccc3OC)o2)ccc1C — higher, 1030 s
- O=C1NC2(CCN(C(=O)c3ccccc3Cl)CC2)N=C1c1cccc(F)c1 — higher, 776 s
- Cc1ccc(F)cc1NC(=O)c1cnc2c(c1)c(=O)n(C)c(=O)n2-c1ccccc1 — higher, 881 s
- CN(C(=O)Cc1ccc(Cl)c(Cl)c1)[C@@H](CN1CCCC1)c1ccccc1 — lower, 718 s
- CCn1cc(CC(=O)NCc2ccc(F)cc2)c2cccnc21 — lower, 708 s
- COc1ccc(Cl)cc1NC(=O)c1cc(S(=O)(=O)N2CCC(C)CC2)cn1C — higher, 1210 s
- COc1ccc2[nH]cc(CCN3CC(C(=O)Nc4cc(C)ccc4C)CC3=O)c2c1 (stereo not drawn) — higher, 774 s
- Cc1cccc(Cn2nc(-c3nc(C)no3)ccc2=O)c1 — higher, 789 s
- Cc1cc(C)n(-c2ccnc(N3CCC(C(N)=O)CC3)n2)n1 — lower, 586 s
- COc1ccc2cc(C(=O)Nc3ccc(F)cc3C)[nH]c2c1 — higher, 806 s
- COc1ccc(-n2nc(N3CCN(C(=O)CC4CCCC4)CC3)ccc2=O)cc1 — higher, 800 s
- COc1nn(C)cc1C(=O)Nc1nc(-c2ccc3c(c2)CCCC3)cs1 — higher, 1090 s
- COc1ccc(C(=O)CSc2nc(CC(=O)NCc3cccnc3)cs2)cc1 — lower, 589 s
- O=C(CSCc1ccccc1)Nc1c(-c2ccc(F)cc2)nc2ccccn12 — lower, 714 s
- O=C(NCc1ccccc1)C(=O)NCC1OCCc2ccccc21 (stereo not drawn) — higher, 893 s
- COc1ccc(NS(=O)(=O)c2cc(-c3nc(C(C)(C)C)cs3)cs2)cc1Cl — higher, 1220 s
- CCN(CC)c1ccc(NC(=O)c2nc3nc(C)cc(C(F)F)n3n2)cc1 — lower, 598 s
- CCOc1ccc(CNC(=O)C2CCN(Cc3cn(C)c4ccc(Cl)cc34)CC2)cc1OC — lower, 717 s
- CC(C)(C)C(=O)N1CCC(C(=O)Nc2cccc(Br)c2)CC1 — higher, 855 s
- COc1ccc(Nc2nccc(C3CCCN(C(=O)C(C)(C)C)C3)n2)cc1 (stereo not drawn) — higher, 892 s
- O=C(Cc1cccs1)NCC(c1ccsc1)N1CCCC1 (stereo not drawn) — lower, 558 s
- Cc1ccccc1Nc1c(-c2ccc(N(C)C)cc2)nc2cnccn12 — higher, 833 s
- CC(=O)NCCc1csc(C2CCCN(C(=O)C3(c4ccccc4)CC3)C2)n1 (stereo not drawn) — lower, 705 s
- Cc1ccc(Cn2cc(-c3noc(-c4cccc(N(C)C)c4)n3)nn2)cc1 — higher, 1100 s
- CC1CCN(S(=O)(=O)c2ccc3c(c2)CCCC(=O)N3CC(=O)NCc2ccccc2)CC1 — higher, 907 s
- Cc1sc2ccn(CC(C)C)c(=O)c2c1C(=O)NCCN1CCCCCC1 — lower, 684 s
- C=CCn1nnc(NCc2ccc(-c3cccc(Cl)c3)o2)n1 — higher, 1050 s
- Cc1noc(C)c1S(=O)(=O)N1CCC(c2noc(-c3ccccc3)n2)C1 (stereo not drawn) — higher, 1010 s
- COc1ccccc1N1CCN(c2cc(SCC(=O)Nc3ccc4c(c3)OCO4)ncn2)CC1 — higher, 900 s
- CCN1C(=O)c2c(C(=O)NCc3cccc(Cl)c3)ncn2CC1(C)C(=O)NC1CCCC1 (stereo not drawn) — higher, 804 s
- Cc1ccc(C)c2c(=O)c3c([nH]c12)CCN(CC(=O)Nc1ccc(F)cc1)C3 — lower, 634 s
- Cc1ccc(-n2nc3c(N4CCN(C(=O)NCC5CCCO5)CC4)nnc(C)c3c2C)cc1 (stereo not drawn) — lower, 590 s
- CCCCOc1ccc(-c2cc3c4nnc(CCC(=O)NCc5ccc(F)cc5)n4ccn3n2)cc1 — higher, 952 s
- CCCn1nnc2cc(-c3noc(C4CC(=O)N(c5ccc(C)cc5)C4)n3)ccc21 (stereo not drawn) — higher, 964 s
- O=C(Cn1cccc1-c1nc(-c2ccc3c(c2)OCO3)no1)N1CCN(c2ccccc2)CC1 — higher, 1070 s
- CCN(CC)C(=O)C1C(=O)NC2(C)CC1c1ccccc1O2 (stereo not drawn) — lower, 716 s
- O=C(Nc1ccc(Br)cc1)C1CCCN(c2ccnc(-c3ccc(F)cc3)n2)C1 (stereo not drawn) — higher, 775 s
- CCc1ccc(S(=O)(=O)NCC(c2cccs2)N2CCOCC2)s1 (stereo not drawn) — lower, 644 s
- O=C(c1nc(-c2ccnc(N3CCCC3)c2)no1)N1CCC2(CC1)OCCO2 — lower, 617 s
- CC(C)(C)NC(=O)CN1CCC(c2nc(-c3ccc(F)cc3)no2)CC1 — lower, 675 s
- CN1C(=O)C2(CCN(C(=O)c3ccc(Cl)cc3)C2)c2ccccc21 (stereo not drawn) — higher, 851 s
- O=C(/C=C/c1ccccc1)Nc1nc(-c2ccccc2)cs1 — higher, 1070 s
- CC(C)c1ccc(NC(=O)Cn2nc3c4sc(N(C)C)nc4ncn3c2=O)cc1 — higher, 782 s
- CN1C(=O)C2CCCCN2c2ccc(C(=O)NCCCN3CCOCC3)cc21 (stereo not drawn) — lower, 579 s
- CN1CCN(CCc2ccc(Cl)c(Cl)c2)CC1 — lower, 668 s
- CCn1c(=O)n(CC)c2cc(S(=O)(=O)c3ccc(C)cc3)c(N)cc21 — higher, 760 s
- Cc1noc(C)c1S(=O)(=O)N(Cc1cccs1)Cc1cccn1C — higher, 1000 s
- O=C(C1CC(=O)N(c2ccc(F)cc2)C1)N1CC(c2nc(-c3ccccn3)no2)C1 (stereo not drawn) — lower, 650 s
- Cc1nn(-c2ccccc2)c(C)c1/C=C1\Oc2cc(O)ccc2C1=O — higher, 782 s
- CCn1nc(C)c(CCN(C)C(=O)Nc2cccc(C(=O)OC)c2)c1C — lower, 644 s
- COCCCNC(=O)c1ccc2cnn(Cc3ccc(Cl)cc3)c2c1 — higher, 812 s
